Data reported in the NIST ThermoML archive (doi:10.1021/je030177j).

Test: mn = molality of the nth substance listed, in mol/kg
Conditions: Liquid, Capillary tube (Ostwald / Ubbelohde) method

O=S(=O)([O-])[O-].[Li+].[Li+] [lithium sulfate] + O
viscosity [mPa·s]
Conditions | 100 kPa | 10000 kPa | 20000 kPa | 30000 kPa
298.15 K, m1 = 0.1 | 0.939 | – | – | –
298.15 K, m1 = 0.28 | 1.037 | – | – | –
298.15 K, m1 = 0.56 | 1.195 | 1.195 | 1.195 | 1.195
298.15 K, m1 = 0.885 | 1.411 | – | – | –
298.25 K, m1 = 0.28 | – | 1.035 | 1.035 | 1.036
298.35 K, m1 = 0.1 | – | 0.936 | 0.9361 | 0.9363
298.45 K, m1 = 0.885 | – | 1.404 | 1.404 | 1.404
303.15 K, m1 = 0.1 | 0.862 | – | – | –
303.15 K, m1 = 0.28 | 0.951 | – | – | –
303.15 K, m1 = 0.56 | 1.096 | – | – | –
303.15 K, m1 = 0.885 | 1.294 | – | – | –
306.19 K, m1 = 0.56 | – | 1.013 | 1.016 | 1.018
307.35 K, m1 = 0.885 | – | 1.17 | 1.173 | 1.176
307.93 K, m1 = 0.28 | – | 0.8517 | 0.8546 | 0.857
308.52 K, m1 = 0.1 | – | 0.7647 | 0.7659 | 0.7682
311.24 K, m1 = 0.56 | – | 0.9141 | 0.9168 | 0.9192
312.27 K, m1 = 0.28 | – | 0.778 | 0.7812 | 0.784
313.15 K, m1 = 0.1 | 0.707 | – | – | –
313.15 K, m1 = 0.28 | 0.778 | – | – | –
313.15 K, m1 = 0.56 | 0.891 | – | – | –
313.15 K, m1 = 0.885 | 1.054 | – | – | –
313.67 K, m1 = 0.1 | – | 0.6899 | 0.6927 | 0.6955
314.12 K, m1 = 0.885 | – | 1.016 | 1.019 | 1.023
321.55 K, m1 = 0.28 | – | 0.6508 | 0.6539 | 0.6569
322.35 K, m1 = 0.56 | – | 0.7352 | 0.7388 | 0.7422
322.55 K, m1 = 0.885 | – | 0.8649 | 0.8691 | 0.8731
323.15 K, m1 = 0.1 | 0.578 | – | – | –
323.15 K, m1 = 0.28 | 0.63 | – | – | –
323.15 K, m1 = 0.56 | 0.722 | – | – | –
323.15 K, m1 = 0.885 | 0.853 | – | – | –
324.55 K, m1 = 0.1 | – | 0.566 | 0.5689 | 0.5716
329.44 K, m1 = 0.28 | – | 0.567 | 0.57 | 0.5731
330.24 K, m1 = 0.885 | – | 0.7558 | 0.7598 | 0.7639
331.27 K, m1 = 0.56 | – | 0.6319 | 0.6354 | 0.6372
331.86 K, m1 = 0.1 | – | 0.5013 | 0.5035 | 0.5061
333.15 K, m1 = 0.1 | 0.49 | – | – | –
333.15 K, m1 = 0.28 | 0.532 | – | – | –
333.15 K, m1 = 0.56 | 0.61 | – | – | –
333.15 K, m1 = 0.885 | 0.718 | – | – | –
338.71 K, m1 = 0.28 | – | 0.4914 | 0.4942 | 0.4979
339.74 K, m1 = 0.1 | – | 0.4463 | 0.4491 | 0.452
340.72 K, m1 = 0.885 | – | 0.6414 | 0.6452 | 0.6494
340.73 K, m1 = 0.56 | – | 0.5456 | 0.5484 | 0.5514
343.15 K, m1 = 0.1 | 0.429 | – | – | –
343.15 K, m1 = 0.28 | 0.462 | – | – | –
343.15 K, m1 = 0.56 | 0.53 | – | – | –
343.15 K, m1 = 0.885 | 0.624 | – | – | –
343.35 K, m1 = 0.28 | – | 0.4594 | 0.4623 | 0.4653
347.05 K, m1 = 0.1 | – | 0.4034 | 0.4061 | 0.4088
348.15 K, m1 = 0.1 | 0.401 | – | – | –
348.15 K, m1 = 0.28 | 0.433 | – | – | –
348.15 K, m1 = 0.56 | 0.495 | – | – | –
348.15 K, m1 = 0.885 | 0.582 | – | – | –
348.95 K, m1 = 0.885 | – | 0.5714 | 0.5753 | 0.5792
349.55 K, m1 = 0.56 | – | 0.4831 | 0.4864 | 0.4897
351.04 K, m1 = 0.28 | – | 0.415 | 0.4183 | 0.4215
356.84 K, m1 = 0.1 | – | 0.3566 | 0.359 | 0.3621
358.15 K, m1 = 0.1 | 0.355 | – | – | –
358.15 K, m1 = 0.28 | 0.381 | – | – | –
358.15 K, m1 = 0.56 | 0.437 | – | – | –
358.15 K, m1 = 0.885 | 0.511 | – | – | –
359.14 K, m1 = 0.885 | – | 0.4999 | 0.5041 | 0.508
361.24 K, m1 = 0.56 | – | 0.4168 | 0.4191 | 0.4222
362.74 K, m1 = 0.28 | – | 0.3601 | 0.363 | 0.3662
365.04 K, m1 = 0.1 | – | 0.3241 | 0.3265 | 0.3291
369.72 K, m1 = 0.885 | – | 0.4415 | 0.4452 | 0.4495
372.13 K, m1 = 0.56 | – | 0.3691 | 0.3721 | 0.3752
375.75 K, m1 = 0.28 | – | 0.3127 | 0.3153 | 0.3181
378.85 K, m1 = 0.1 | – | 0.2812 | 0.2836 | 0.2862
379.05 K, m1 = 0.885 | – | 0.3993 | 0.4028 | 0.4065
383.06 K, m1 = 0.28 | – | 0.2916 | 0.2942 | 0.2974
384.05 K, m1 = 0.56 | – | 0.3274 | 0.3304 | 0.3335
384.27 K, m1 = 0.885 | – | 0.3782 | 0.382 | 0.3861
389.16 K, m1 = 0.1 | – | 0.2554 | 0.2577 | 0.2599
390.35 K, m1 = 0.56 | – | 0.3089 | 0.3124 | 0.3154
390.42 K, m1 = 0.28 | – | 0.2721 | 0.275 | 0.2784
390.72 K, m1 = 0.885 | – | 0.355 | 0.3591 | 0.3633
397.35 K, m1 = 0.885 | – | 0.3337 | 0.3371 | 0.3406
399.95 K, m1 = 0.28 | – | 0.2502 | 0.2528 | 0.2555
400.84 K, m1 = 0.1 | – | 0.2306 | 0.2331 | 0.236
401.73 K, m1 = 0.56 | – | 0.2797 | 0.2827 | 0.2855
405.24 K, m1 = 0.885 | – | 0.3115 | 0.3152 | 0.3194
409.36 K, m1 = 0.28 | – | 0.2314 | 0.234 | 0.2369
410.95 K, m1 = 0.1 | – | 0.2126 | 0.215 | 0.2192
411.05 K, m1 = 0.56 | – | 0.2584 | 0.2613 | 0.2644
415.13 K, m1 = 0.56 | – | 0.2502 | 0.2531 | 0.2564
415.76 K, m1 = 0.885 | – | 0.286 | 0.2901 | –
